For assay [1], the target named is DNA topoisomerase 2-alpha (Homo sapiens) (UniProt P11388). The assay is described as follows: Inhibition of human topoisomerase 2-mediated relaxation of supercoiled plasmid DNA assessed as formation of linear DNA at 100 uM by agarose gel electrophoresis.
The target in assay [2] is T1, DNA topoisomerase 1 (Homo sapiens) (UniProt P11387).
T1 sequence (whole entry): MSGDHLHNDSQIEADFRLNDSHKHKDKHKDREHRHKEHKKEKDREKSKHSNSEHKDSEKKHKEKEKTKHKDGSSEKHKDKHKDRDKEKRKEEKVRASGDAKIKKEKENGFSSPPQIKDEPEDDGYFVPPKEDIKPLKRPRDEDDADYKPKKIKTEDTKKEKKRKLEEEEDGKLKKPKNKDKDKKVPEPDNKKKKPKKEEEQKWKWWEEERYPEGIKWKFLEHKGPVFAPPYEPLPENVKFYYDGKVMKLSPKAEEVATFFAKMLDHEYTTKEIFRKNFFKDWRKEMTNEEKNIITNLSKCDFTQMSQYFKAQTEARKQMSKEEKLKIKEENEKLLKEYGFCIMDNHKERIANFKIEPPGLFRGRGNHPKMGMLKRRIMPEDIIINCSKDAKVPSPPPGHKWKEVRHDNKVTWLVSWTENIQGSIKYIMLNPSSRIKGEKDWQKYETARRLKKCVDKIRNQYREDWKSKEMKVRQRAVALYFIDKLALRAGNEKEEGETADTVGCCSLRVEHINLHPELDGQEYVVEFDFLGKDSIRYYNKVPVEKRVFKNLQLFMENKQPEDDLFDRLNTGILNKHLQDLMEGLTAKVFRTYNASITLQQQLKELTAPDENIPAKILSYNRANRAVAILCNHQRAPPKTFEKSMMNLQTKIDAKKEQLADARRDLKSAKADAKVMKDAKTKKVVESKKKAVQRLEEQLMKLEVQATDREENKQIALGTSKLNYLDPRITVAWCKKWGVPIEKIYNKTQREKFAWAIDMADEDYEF
The assay is described as follows: Inhibition of human topoisomerase 1-mediated relaxation of supercoiled plasmid DNA assessed as formation of linear DNA at 100 uM by agarose gel electrophoresis.

The subject of a further assay is KB. The assay is described as follows: Cytotoxicity against human KB cells by MTT assay. Type of assay: functional, cell-based.
In another assay the test system is Bel-7402. The assay is described as follows: Cytotoxicity against human Bel7402 cells by MTT assay. In kind it is functional, cell-based. A general note: Tetrazolium assays rely on reduction of a dye to a coloured formazan, in cell work by metabolically active cells.
In another assay the test system is HCT-116. Put plainly: Cytotoxicity against human HCT116 cells by MTT assay. In kind it is functional, cell-based.
Another assay deals with MDA-MB-231. Put plainly: Cytotoxicity against human MDA-MB-231 cells by MTT assay. In kind it is functional, cell-based.
The test system of the next assay is A549. The assay is described as follows: Cytotoxicity against human A549 cells by MTT assay. Type of assay: functional, cell-based.

Activity calls are given as the source filed them. The calls are words filed in the database; no cut-off is given here. Where only a bound is given, the exact number is not on record here.

In ChEMBL document CHEMBL2380303, “Synthesis, cytotoxicity and topoisomerase II inhibitory activity of lomefloxacin derivatives” (Bioorg Med Chem Lett, 2013) one finds inhibition and IC50 data, which are given here for 15 compounds.

DNA topoisomerase 2-alpha (Homo sapiens), sequence (P11388 whole entry): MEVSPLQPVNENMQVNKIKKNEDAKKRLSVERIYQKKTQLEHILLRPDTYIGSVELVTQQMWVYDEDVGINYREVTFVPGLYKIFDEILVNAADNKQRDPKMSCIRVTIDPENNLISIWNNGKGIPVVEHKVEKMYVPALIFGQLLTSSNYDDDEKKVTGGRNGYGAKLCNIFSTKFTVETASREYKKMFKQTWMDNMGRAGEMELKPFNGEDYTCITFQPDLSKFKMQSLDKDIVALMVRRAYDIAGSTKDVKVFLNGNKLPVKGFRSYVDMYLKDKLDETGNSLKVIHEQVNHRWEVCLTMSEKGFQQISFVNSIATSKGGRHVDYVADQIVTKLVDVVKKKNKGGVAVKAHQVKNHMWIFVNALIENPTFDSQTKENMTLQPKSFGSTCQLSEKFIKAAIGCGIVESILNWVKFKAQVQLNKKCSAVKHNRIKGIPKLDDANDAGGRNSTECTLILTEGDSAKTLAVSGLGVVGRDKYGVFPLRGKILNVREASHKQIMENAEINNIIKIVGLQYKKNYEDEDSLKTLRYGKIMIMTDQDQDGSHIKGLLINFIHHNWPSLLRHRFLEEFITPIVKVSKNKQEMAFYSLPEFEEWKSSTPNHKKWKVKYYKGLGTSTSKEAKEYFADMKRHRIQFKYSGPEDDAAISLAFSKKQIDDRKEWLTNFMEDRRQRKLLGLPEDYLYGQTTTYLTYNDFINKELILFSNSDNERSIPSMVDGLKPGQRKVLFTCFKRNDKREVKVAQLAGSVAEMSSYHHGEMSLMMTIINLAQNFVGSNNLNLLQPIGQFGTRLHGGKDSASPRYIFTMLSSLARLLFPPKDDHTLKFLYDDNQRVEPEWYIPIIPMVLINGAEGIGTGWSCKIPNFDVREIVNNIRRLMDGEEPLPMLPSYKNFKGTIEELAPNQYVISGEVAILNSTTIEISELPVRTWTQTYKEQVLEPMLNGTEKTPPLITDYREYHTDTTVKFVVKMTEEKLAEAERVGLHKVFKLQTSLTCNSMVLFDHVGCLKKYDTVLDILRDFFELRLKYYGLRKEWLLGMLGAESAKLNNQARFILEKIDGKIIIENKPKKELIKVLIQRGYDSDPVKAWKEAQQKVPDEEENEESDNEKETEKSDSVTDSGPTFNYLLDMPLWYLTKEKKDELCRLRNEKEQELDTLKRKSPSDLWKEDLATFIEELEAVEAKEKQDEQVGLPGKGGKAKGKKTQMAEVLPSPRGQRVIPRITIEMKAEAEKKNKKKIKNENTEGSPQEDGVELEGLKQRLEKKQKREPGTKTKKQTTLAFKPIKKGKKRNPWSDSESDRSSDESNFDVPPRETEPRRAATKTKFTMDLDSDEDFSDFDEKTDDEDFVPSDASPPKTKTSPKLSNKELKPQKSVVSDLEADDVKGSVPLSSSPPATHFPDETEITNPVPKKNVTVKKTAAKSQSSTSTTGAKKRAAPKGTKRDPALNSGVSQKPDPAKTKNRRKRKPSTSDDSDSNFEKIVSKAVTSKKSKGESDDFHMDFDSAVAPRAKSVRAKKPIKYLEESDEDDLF

As for `CCn1cc(C(=O)Nc2ccc(C(C)=O)cc2)c(=O)c2cc(F)c(N3CCNC(C)C3)c(F)c21` (stereo not drawn), the inhibition entry in assay [1] was “Active”. In addition, the inhibition entry in assay [2] is “inactive”. Further, the IC50 (in general, the midpoint of a concentration-inhibition curve) is 42.6 µM in the assay with KB; > 50 µM in the assay with Bel-7402; 4.6 µM in the assay with HCT-116; 5.6 µM in the assay with MDA-MB-231; 4 µM in the assay with A549.

Turning to `CCn1cc(C(=O)Nc2ccccc2N)c(=O)c2cc(F)c(N3CCNC(C)C3)c(F)c21` (stereo not drawn), the inhibition entry in assay [2] was “inactive”. The IC50 in the assay with KB came to 2.8 µM; with Bel-7402 it was 4.8 µM; with HCT-116, 2.7 µM; with MDA-MB-231 it was 9.5 µM; with A549, 5.9 µM.

`CCn1cc(C(=O)Nc2cc([N+](=O)[O-])ccc2F)c(=O)c2cc(F)c(N3CCNC(C)C3)c(F)c21` (stereo not drawn): the inhibition entry in assay [1] is “Active”. The inhibition entry in assay [2] was “inactive”. Also, the IC50 is 3.2 µM with KB; 2.9 µM in the assay with Bel-7402; 2.6 µM with HCT-116; 6.9 µM in the assay with MDA-MB-231; 1.7 µM in the assay with A549.

Take `CC[C@@]1(O)C(=O)OCc2c1cc1n(c2=O)Cc2cc3cc(O)ccc3nc2-1` [HYDROXYCAMPTOTHECIN]: the IC50 stood at 0.3 µM in the assay on HCT-116, 0.06 µM in the assay on MDA-MB-231 and 0.07 µM in the assay on A549.

`CCn1cc(C(=O)Nc2ccccc2)c(=O)c2cc(F)c(N3CCNC(C)C3)c(F)c21` (stereo not drawn): in assay [2], the inhibition entry was “inactive”. The IC50 with KB was determined as 4.4 µM; with Bel-7402, 6 µM; with HCT-116 it was 12.7 µM; with MDA-MB-231, 7.4 µM; with A549 it was 39.3 µM.

Take `CCn1cc(-c2nc3ccc([N+](=O)[O-])cc3o2)c(=O)c2cc(F)c(N3CCNC(C)C3)c(F)c21` (stereo not drawn): in assay [2], the inhibition result is “inactive”. Also, the concentration for half-maximal inhibition (IC50) is 0.9 µM in the assay on KB; 1.6 µM with Bel-7402; 1.1 µM with HCT-116; 2 µM in the assay with MDA-MB-231; 0.9 µM in the assay on A549.

As to `CCn1cc(C(=O)Nc2cccc([N+](=O)[O-])c2)c(=O)c2cc(F)c(N3CCNC(C)C3)c(F)c21` (stereo not drawn), in assay [1], the inhibition entry is “Active”. Also, the inhibition result in assay [2] is “inactive”. Further, the IC50 turned out to be 1.7 µM in the assay with KB; 1 µM in the assay with Bel-7402; 2.71 µM in the assay with HCT-116; 3.25 µM with MDA-MB-231; 3.24 µM in the assay on A549.

Turning to `CCn1cc(C(=O)Nc2ccccc2O)c(=O)c2cc(F)c(N3CCNC(C)C3)c(F)c21` (stereo not drawn), in assay [2], the inhibition entry was “inactive”. The IC50 was 5.05 µM in the assay with KB; > 50 µM in the assay with Bel-7402; 5.37 µM in the assay with HCT-116; 7.43 µM in the assay on MDA-MB-231; 24.8 µM in the assay with A549.

Turning to `COc1cc([C@@H]2c3cc4c(cc3[C@@H](O[C@@H]3O[C@@H]5CO[C@@H](C)O[C@H]5[C@H](O)[C@H]3O)[C@H]3COC(=O)[C@H]23)OCO4)cc(OC)c1O`, the inhibition result in assay [1] is “Active”.

Regarding `CCn1cc(C(=O)Nc2ccc(OC(F)(F)F)cc2)c(=O)c2cc(F)c(N3CCNC(C)C3)c(F)c21` (stereo not drawn), in assay [1], the inhibition result was “Active”. In addition, the inhibition entry in assay [2] was “inactive”. For the same compound, the IC50 with KB amounted to 1.4 µM; in the assay on Bel-7402, 2 µM; with HCT-116 it was 2.35 µM; with MDA-MB-231 it was 0.98 µM; in the assay on A549 it was 1.32 µM.

Turning to `CCn1cc(C(=O)Nc2ccc(C)c([N+](=O)[O-])c2)c(=O)c2cc(F)c(N3CCNC(C)C3)c(F)c21` (stereo not drawn), in assay [1], the inhibition entry is “Active”. Besides, the inhibition entry in assay [2] is “inactive”. Moreover, the half-maximal inhibitory concentration (IC50) in the assay on KB came out at 3.9 µM; with Bel-7402, 29.1 µM; in the assay with HCT-116 it was 11.8 µM; with MDA-MB-231, 4.2 µM; in the assay on A549 it was 3.7 µM.

Regarding `CCn1cc(C(=O)Nc2ccc(OC)cc2)c(=O)c2cc(F)c(N3CCNC(C)C3)c(F)c21` (stereo not drawn), in assay [2], the inhibition entry is “inactive”. Further, the IC50 in the assay on KB worked out at 2.6 µM; with Bel-7402, 5.4 µM; in the assay with HCT-116 it was 3.8 µM; with MDA-MB-231, 7.3 µM; in the assay on A549 it was 9.7 µM.

As to `CCn1cc(C(=O)NCc2ccc(OC)cc2)c(=O)c2cc(F)c(N3CCNC(C)C3)c(F)c21` (stereo not drawn), in assay [2], the inhibition entry is “inactive”. Also, the IC50 in the assay on KB stood at 1.63 µM; with Bel-7402 it was 10.3 µM; in the assay with HCT-116, 1.4 µM; in the assay on MDA-MB-231 it was 25.3 µM; with A549, 7 µM.

`CCn1cc(C(=O)Nc2ccc(Cl)cn2)c(=O)c2cc(F)c(N3CCNC(C)C3)c(F)c21` (stereo not drawn): the inhibition result in assay [1] was “Active”. Besides, in assay [2], the inhibition result is “inactive”. For the same compound, the IC50 in the assay with KB stood at 1.6 µM; in the assay with Bel-7402, 4.9 µM; with HCT-116 it was 3.3 µM; in the assay on MDA-MB-231 it was 4.8 µM; with A549, 3.3 µM.

On to `CCn1cc(C(=O)Nc2nccs2)c(=O)c2cc(F)c(N3CCNC(C)C3)c(F)c21` (stereo not drawn), for which, in assay [2], the inhibition result is “inactive”. The IC50 in the assay on KB was 43.5 µM; in the assay with Bel-7402, > 50 µM; with HCT-116, 8.66 µM; in the assay with MDA-MB-231 it was > 50 µM; with A549, 20.2 µM.
